Counter-ions that a name gives are not always drawn. Like-named read-outs stand apart in the source and are kept apart here.
Columns and labels:
[1] = tested on: human multiple myeloma cell line RPMI-8226; assay: Multiple myeloma model, subcutaneous RPMI-8226 tumors; format: in vivo; conditions: RPMI-8226 s.c. in male SCID/NOD mice; 100 mg/kg IV three consecutive days per week; after 45 days
Description: The effects of the test compound were studied in a human multiple myeloma cell line RPMI-8226 in male SCID/NOD mice. In this study, male mice were implanted subcutaneously with RPMI-8226 cells (1×10^7 cells). When the average tumor size reached 100 mm^3, animals were randomly assigned to treatment groups (N=10-15/group) to receive either vehicle (50 mM citrate, 50 mM ascorbate, 2.4 mM EDTA adjusted to pH 3.0) or 100 mg/kg (300 mg/m^2) of the test compound three consecutive days per week. The test article or vehicle was administered intravenously (IV) via the tail vein in a volume of 0.2 mL over approximately 20 seconds (sec). The animals were sacrificed after 45 days and tumor volumes compared.
(§1) The results from the biological activity analysis of the hydroquinones of the invention are presented below. All values are expressed as the mean±SEM. Data analysis consisted of a one way analysis of variance and if appropriate followed by Dunnets test to assess differences between vehicle and treatment groups. Differences are considered significant at p<0.05.

MDA-MB-468 cells = assay: MDA-MB-468 cell cytotoxicity, Alamar blue; format: cell-based; conditions: Homo sapiens, 72 h
Description: (§2) The human cancer cell lines SKBr3, MV4-11, K562, SK-MEL-28, LnCAP, and MDA-MB-468 were obtained from the American Type Culture Collection (Manassas, Va.). The multiple myeloma RPMI-8226 and MM1.s cells were from Dr. Teru Hideshima (Jerome Lipper Multiple Myeloma Center, Dana Farber Cancer Institute, Boston, Mass., USA.). All the cell lines were determined to be mycoplasma-free. The cells were maintained in RPMI-1640 medium supplemented with 10% heat-inactivated FBS, 50 units/mL streptomycin and 50 units/mL penicillin, and incubated at 37° C. in 5% CO2. Adherent cells were dissociated with 0.05% trypsin and 0.02% EDTA in phosphate buffer saline (PBS) without calcium and magnesium prior to plating for experimentation.
MDA-MB-468 Cells were incubated for 72 h with increasing concentrations of the test compound. For the viability studies Alamar blue was added and wells read after 6 h of incubation.

MM1.s cells = assay: MM1.s cell cytotoxicity, Alamar Blue assay; format: cell-based; conditions: Homo sapiens, 72 h
Description: as §2
Alamar Blue assay. MM1.s cells (50,000/well) were incubated for 72 h with increasing concentrations of the test compound. Alamar blue was added to the wells and fluorescence measured 4 h after incubation at 37° C.

physchem = conditions: water / aqueous solutions
Lewis lung cells = assay: Murine Lewis lung model; format: in vivo; conditions: Lewis lung cells s.c. in C57B1/6 mice; 75 mg/m^2 MWF for 3 cycles, tail vein; after 25 days
Description: A study was performed in the mouse Lewis lung model to assess the ability of the compounds of the present invention to reduce both subcutaneous tumor burden as well as the incidence of lung metastasis. In this study C57B1/6 mice were implanted subcutaneously with Lewis lung cells (1×10^6 cells). When the average tumor size reached 71 mm^3 animals (N=10-15/group) were randomly assigned to the following treatment groups: vehicle and compound 15 75 mg/m^2 Monday, Wednesday and Friday (MWF) for 3 cycles. Each cycle consisted of […] of treatment. The test article or vehicle was administered via the tail vein in a volume of 0.2 mL over approximately 30 sec. The animals were sacrificed after 25 days and tumor volumes were compared.
as §1

[2] = tested on: Native human Hsp90 protein isolated from HeLa cells; assay: Competitive binding to HSP90, fluorescence polarization assay with BODIPY-GDM; conditions: competitive binding experiment
Description: A 20 nM BODIPY-GDM solution was freshly prepared in FP binding assay buffer [20 mM HEPES-KOH, pH 7.3, 1.0 mM EDTA, 100 mM potassium chloride, 5.0 mM magnesium chloride, 0.01% NP-40, 0.1 mg/mL Bovine γ-globulin (BGG), 1.0 mM DTT, and Complete™ protease inhibitor] from a 20 μM stock solution in DMSO. […] After 3-h incubation at 30° C., fluorescence anisotropy was measured on an EnVision 2100 multilabel plate reader equipped with a 485 nm excitation filter and a 535 nm P/S emission filter (Perkin Elmer, Boston, Mass.).
A dilution series for each compound was freshly prepared in FP binding assay buffer from 20 μM to 0.20 nM. […] After 3-h incubation at 30° C., fluorescence anisotropy was measured on an EnVision 2100 plate reader.
Assays were performed under nitrogen atmosphere in a LabMaster glove box (M. Braun, Stratham, N H). […] After 3-h incubation at 30° C., the microplate was brought out of the glove box, and fluorescence anisotropy was immediately measured on an EnVision 2100 plate reader.
Binding of BODIPY-GDM to Hsp90 results in simultaneous increases in fluorescence anisotropy (FA) and intensity (FI). […]
[formula] with Hill coefficient forced to 1 for simplicity. From the values of FImax (bound ligand) and FImin (free ligand), a Q factor is calculated by: […]
[formula] and FA being expressed as the weighted sum of contributions from the free and bound forms of ligand: […]

[3] = tested on: MDA-MB-468 breast carcinoma; assay: Breast carcinoma model, subcutaneous MDA-MB-468 tumors; format: in vivo; conditions: MDA-MB-468 s.c. in female nu/nu athymic mice; 100 mg/kg IV twice weekly; after 120 days
Description: A study was performed in the MDA-MB-468 breast carcinoma model to assess the ability of the test compound to reduce subcutaneous tumor burden. In this study, female nu/nu athymic mice were implanted subcutaneously with MDA-MB-468 cells (1×10^7 cells). When the average tumor size reached 100 mm^3, animals were randomly assigned (N=10-15/group) to one of the following treatment groups; vehicle or the test compound at 100 mg/kg (300 mg/m^2) twice weekly every week. The test article or vehicle was administered intravenously (IV) via the tail vein in a volume of 0.2 mL over approximately 20 seconds (sec). The animals were sacrificed after 120 days and tumor volumes compared.
as §1

SK-MEL-28 cells = assay: SK-MEL-28 cell cytotoxicity, Alamar blue; format: cell-based; conditions: Homo sapiens, SK-MEL-28 cells, 2, 3 or 4 days
Description: as §2
Increasing concentrations of the test compound was added to SK-MEL-28 cells in culture for 2, 3 or 4 days and the viability of the cells was measured using Alamar blue.

K562 cells = assay: K562 cell cytotoxicity, Alamar blue; format: cell-based; conditions: Homo sapiens
Description: as §2
K562 cells were incubated with increasing concentrations of the test compound. Cell viability was assessed using an Alamar blue read out

SKBr3 cells = assay: SKBr3 cell cytotoxicity, Alamar blue; format: cell-based; conditions: Homo sapiens, SK-BR-3, 72 h
Description: as §2
SKBr3 Cells were incubated for 72 h with increasing concentrations of the test compound. For the viability studies Alamar blue was added and wells read after a 6 h incubation.

SKOV-3 cells = assay: Ovarian carcinoma model, SKOV-3 xenograft; format: in vivo; conditions: SKOV-3 s.c. in female nu/nu athymic mice; 100 mg/kg IV twice weekly; after 88 days
Description: A study was performed in the SKOV-3 ovarian mouse xenograft model to assess the ability of the test compound to reduce subcutaneous tumor burden. In this study, female nu/nu athymic mice were implanted subcutaneously with SKOV-3 cells (1×10^7 cells). When the average tumor size reached 100 mm^3, animals were randomly assigned to treatment groups (N=10-15/group) to receive either vehicle, the test compound at 100 mg/kg (300 mg/m^2) twice weekly. The test article or vehicle was administered intravenously (IV) via the tail vein in a volume of 0.1 mL over approximately 10 seconds (sec). The animals were sacrificed after 88 days and tumor volumes compared.
as §1

PC-3 cells = assay: Prostate carcinoma, PC-3 xenograft models; format: in vivo; conditions: PC-3 s.c. in male nu/nu athymic mice; single agent 100 mg/kg twice weekly; after 64 days
Description: Two studies were performed in mouse PC-3 prostate xenograft models to assess the ability of the test compound to reduce subcutaneous tumor burden as a single agent or in combination with current standard of care. In both studies male nu/nu athymic mice were implanted subcutaneously with PC-3 cells (1×10^7 cells). When the average tumor size reached 100 mm^3 animals were randomly assigned to treatment groups (N=10-15/group). In the first study mice received either vehicle, the test compound 100 mg/kg (300 mg/m^2) twice weekly. The test article or vehicle was administered via the tail vein in a volume of 0.2 mL over approximately 20 sec. The animals were sacrificed after 64 days and tumor volumes compared.
A second study was performed in this model to assess the test compound in combination with the standard of care, Taxotere. […] The animals were sacrificed after 64 days and tumor volumes compared.

LnCAP cells = assay: LnCAP cell cytotoxicity, Alamar blue; format: cell-based; conditions: Homo sapiens, 96 h, 4 days
Description: as §2
Increasing concentrations of the test compound added to LnCAP cells in culture for 4 days and the viability of the cells was measured using Alamar blue.

MV4-11 cells = assay: MV4-11 cell cytotoxicity, Alamar blue; format: cell-based; conditions: Homo sapiens, 72 h, 3 days
Description: as §2
MV4-11 cells were incubated for 3 days with increasing concentrations of the test compound. Cell viability was assessed using an Alamar blue read out.

[4] = tested on: NCI 60 tumor cell line panel; conditions: Developmental Therapeutics Program Website, read-out: mean IC50 over all cell lines in the panel; cited from earlier work
[5] = water / aqueous solutions

Q: Which “% Tumor Growth Compared to Vehicle” value [1] does the source give for `C=CCNc1c(O)cc2c(O)c1C[C@@H](C)C[C@H](OC)[C@H](O)[C@@H](C)/C=C(\C)[C@H](OC(N)=O)[C@@H](OC)/C=C\C=C(/C)C(=O)N2` [Compound 15, HCl Salt of the Hydroquinone of 17-AAG] here?
A: 71%

Q: What about the EC50 (MDA-MB-468 cells) of the same compound?
A: 335 nM

Q: What about the EC50 (MM1.s cells) of the same compound?
A: 307 nM

Q: What about the solubility (physchem) of the same compound?
A: > 200 mg/mL

Q: What about the “% Tumor Growth Compared to Vehicle” value (Lewis lung cells) of the same compound?
A: 60%

Q: And the “HSP90 inhibition (summary in words)” value [2]?
A: active HSP90 inhibitors

Q: What about the “% Tumor Growth Compared to Vehicle” value [3] of the same compound?
A: 76%

Q: What about the EC50 (SK-MEL-28 cells) of the same compound?
A: 200 nM

Q: What about the EC50 (K562 cells) of the same compound?
A: 29 nM

Q: And the EC50 (SKBr3 cells)?
A: 32 nM

Q: And the “% Tumor Growth Compared to Vehicle” value (SKOV-3 cells)?
A: 59%

Q: And the “% Tumor Growth Compared to Vehicle” value (PC-3 cells)?
A: 50%

Q: What about the EC50 (LnCAP cells) of the same compound?
A: 73 nM

Q: And the EC50 (MV4-11 cells)?
A: 25 nM

Q: Which EC50 (MDA-MB-468 cells) does the source give for `C=CCNC1=C2C[C@@H](C)C[C@H](OC)[C@H](O)[C@@H](C)/C=C(\C)[C@H](OC(N)=O)[C@@H](OC)/C=C\C=C(/C)C(=O)NC(=CC1=O)C2=O` [Compound 17-AAG, 17-allylamino-17-demethoxygeldanamycin, reference compound] here?
A: 356 nM

Q: And the EC50 (MM1.s cells)?
A: 306 nM

Q: What about the IC50 [4] of the same compound?
A: 120 nM

Q: What about the EC50 (K562 cells) of the same compound?
A: 50 nM

Q: And the EC50 (SKBr3 cells)?
A: 34 nM

Q: What about the EC50 (MV4-11 cells) of the same compound?
A: 38 nM

Q: For `C=CCNc1c(O)cc2c(O)c1C[C@@H](C)C[C@H](OC)[C@H](O)[C@@H](C)/C=C(\C)[C@H](OC(N)=O)[C@@H](OC)/C=C\C=C(/C)C(=O)N2` [hydroquinone of 17-AAG, 17-allylamino-18,21-dihydro-17-demethoxygeldanamycin], which solubility [5] is on record?
A: 1 to 3 mg/mL
